Assay results taken from patent US20030216569A1, “Method of making HIV protease inhibitors” (priority 1993, published 2003).
≈ marks a conversion by molar mass, not a printed value. Where “and” joins values, the source holds several entries; their conditions need not be identical. Identical values can stand only once.

Tests used:
[1] = system: HIV-1 isolates IIIB and/or RF in MT-2 cells; assay: SRI primary anti-HIV screen, MTT assay of inhibition of HIV-induced cell killing in MT2 cells; assay type: cell-based; settings: for IC50: Human immunodeficiency virus 1, IIIB, MT2, read-out: SRI MT2 IC50 ng/ml, MT2 cells; for SRI MT2 IC50: MT2 cells
From the text: I. Primary Drug Screening of Anti-HIV Compounds at Southern Research Institute (SRI) (Results recorded in Table 1 are designated “SRI CEM (ng/ml)” or “SRI MT2 (ng/ml)”)
(§1) A. Principle of MTT Assay:
(§2) SRI has an established program for the primary antiviral analysis of compounds in microtiter assays which measures the ability of a selected compound to inhibit HIV-induced cell killing. This assay involves the conversion of the tetrazolium dye MTT to a colored formazan product by mitochondrial enzymes in metabolically active cells. This assay system is used at SRI to screen over 30,000 compounds per year. Briefly, the assay involves the infection of CEM or MT2 cells in round bottom 96-well plates. The compound of interest is added just prior to infection. Following 6 days of incubation at 37° C. the plates are stained with MTT. The results of the assay are quantitated spectrophotometrically on a Molecular Devices Vmax plate reader. The data are analyzed by linear regression utilizing an in-house software program to calculate antiviral activity (IC25, IC50, IC95) and toxicity (TC25, TC50, TC95) as well as other values.
(§3) Primary antiviral assays are routinely performed in CEM or MT-2 cells.
(§4) B. Standard Screening Assays in CEM and MT-2 Cells
(§5) 1. Compound dilution and delivery to the plates
Drugs are solubilized in the appropriate vehicle such as distilled water or DMSO if necessary. Latex gloves, lab coats and masks are used during all phases of the handling process to prevent exposure to potentially harmful agents. The drug is prepared at the appropriate concentration and stored at −20° C. until used by the screening laboratory. The first dilution of each compound is made in a dilution tube with medium to yield a concentration two-fold that of the highest test concentration. Sterile titer tubes are then used to make serial one half-log dilutions of each compound. Following drug dilution, the diluted compound is added to the appropriate well of a 96-well microtiter plate. […] When testing includes only six dilutions, two drugs can be assayed on a single microtiter plate. The drugs are added to the plate in a final volume of 100 microliters.
(§6) During the time the drug dilutions are prepared, cells are washed and counted. Viability is monitored by trypan blue dye exclusion and assays are not performed if the viability falls below 90%. Cells are maintained in an exponential growth phase and are split 1:2 on the day prior to assay to assure exponential growth rate.
(§7) For the primary screen, the cell lines utilized are CEM and MT-2. Unless otherwise indicated, the medium used is RPMI 1640 with 10% heat-inactivated fetal calf serum (FBS), glutamine and antibiotics.
(§8) Cells are propagated at 37° C. in an atmosphere of 5% CO2 in air. The virus employed for this work is HIV-1 isolates IIIB and/or RF, which are prepared by an acute infection process.
(§9) Briefly, virus-infected cells are pelleted on a daily basis beginning at three days post-infection until the virus has killed all of the cells in the culture. Reverse transcriptase activity and p24 ELISA are used to identify pools with the greatest amout of virus.
(§10) These 24-hour harvests are pooled, filtered and frozen at −90° C. Prior to use in the assay, the infectious pool of virus is titered on all available cell lines in order to determine the amount of virus required in the antiviral assay.
In general, pools produced by the acute infection method require the addition of one microliter of infectious virus per well resulting in the screening of drugs at a multiplicity of infection of 0.01. In this manner, enough virus is prepared and frozen to complete over one thousand microtiter plates, allowing the testing of up to two thousand compounds from a single stock of infectious virus. The use of a single stock of virus for a long period of testing has very favorable effects on the repeatability of the assay systems. […]

[2] = system: HIV-1 isolates IIIB and/or RF in CEM cells; assay: SRI primary anti-HIV screen, MTT assay of inhibition of HIV-induced cell killing in CEM cells; assay type: cell-based; settings: for SRI CEM IC50: CEM cells; for IC50: Human immunodeficiency virus 1, IIIB, CCRF-CEM, read-out: SRI CEM IC50 ng/mL, CEM cells
Method: as §1
as §2, with “This” for “SRI has an established program for the primary antiviral analysis of compounds in microtiter assays which measures the ability of a selected compound to inhibit HIV-induced cell killing. This”
as §3, §4, §5
Drugs are solubilized in the appropriate vehicle such as distilled water or DMSO if necessary. Latex gloves, lab coats and masks are used during all phases of the handling process to prevent exposure to potentially harmful agents. The drug is prepared at the appropriate concentration and stored at −20° C. until used by the screening laboratory. The first dilution of each compound is made in a dilution tube with medium to yield a concentration two-fold that of the highest test concentration. Sterile titer tubes are then used to make serial one half-log dilutions of each compound. Following drug dilution, the diluted compound is added to the appropriate well of a 96-well microtiter plate. Up to 12 dilutions can be assayed conveniently in triplicate on a single plate with all appropriate controls including cell control, virus control, toxicity control, drug color control, medium control and plastic (background) control. When testing includes only six dilutions, two drugs can be assayed on a single microtiter plate. The drugs are added to the plate in a final volume of 100 microliters.
as §6, §7, §8, §9, §10
In general, pools produced by the acute infection method require the addition of one microliter of infectious virus per well resulting in the screening of drugs at a multiplicity of infection of 0.01. In this manner, enough virus is prepared and frozen to complete over one thousand microtiter plates, allowing the testing of up to two thousand compounds from a single stock of infectious virus.
Virus infection of the CEM and MT-2 cells for the antiviral assay is carried out in a bulk infection process.

| Compound | IC50 [1] | SRI MT2 IC50 [1] | SRI CEM IC50 [2] | IC50 [2] |
| --- | --- | --- | --- | --- |
| CC(C)(C)NC(=O)C1CC2CCCCC2CN1CC(O)C(Cc1ccccc1)NC(=O)c1cccc(O)c1F (stereo not drawn) [Example 1, [3S-(3R*,4aR*,8aR*,2′S*,3′R*)]-2-[2′-Hydroxy-3′-phenylmethyl-4′-aza-5′-oxo-5′-(2″-fluoro-3″-hydroxyphenyl)pentyl]decahydroisoquinoline-3-N-t-butylcarboxamide] | 1310 ng/mL (≈ 2.43 µM) | 1.5 µg/mL | 1.38 µg/mL | 1000 ng/mL (≈ 1.85 µM) |
| CC(C)(C)NC(=O)C1CC2CCCCC2CN1CC(O)C(Cc1ccccc1)NC(=O)c1c(Cl)ccc(O)c1Cl (stereo not drawn) [Example 17, [3S-(3R*,4aR*,8aR*,2′S*,3′R*)]-2-[2′-Hydroxy-3′-phenylmethyl-4′-aza-5′-oxo-5′-(2″,6″-dichloro-3″-hydroxyphenyl)pentyl] decahydroisoquinoline-3-N-t-butylcarboxamide] |  | 8.99 µg/mL and 5.39 µg/mL | 2.9 µg/mL and 2.5 µg/mL |  |
| CCCc1c(O)cccc1C(=O)NC(Cc1ccccc1)C(O)CN1CC2CCCCC2CC1C(=O)NC(C)(C)C (stereo not drawn) [Example 22, [3S-(3R*,4aR*,8aR*,2′S*,3′R*)]-2-[2′-Hydroxy-3′-phenylmethyl-4′-aza-5′-oxo-5′-(2″-propyl-3″-hydroxyphenyl)pentyl] decahydroisoquinoline-3-N-t-butylcarboxamide] | 53 ng/mL (≈ 0.094 µM) |  |  | 136 ng/mL (≈ 0.241 µM) |
| CC(C)(C)NC(=O)C1CC2CCCCC2CN1CC(O)C(Cc1ccccc1)NC(=O)c1ccccc1C(F)(F)F (stereo not drawn) [Example 15, [3S-(3R*,4aR*,8aR*,2′S*,3′R*)]-2-[2′-Hydroxy-3′-phenylmethyl-4′-aza-5′-oxo-5′-(2″-trifluoromethylphenyl)pentyl] decahydroisoquinoline-3-N-t-butylcarboxamide] | 1680 ng/mL (≈ 2.93 µM) | 1.47 µg/mL | 1.59 µg/mL | 1430 ng/mL (≈ 2.49 µM) |
| CCCCc1c(O)cccc1C(=O)NC(Cc1ccccc1)C(O)CN1CC2CCCCC2CC1C(=O)NC(C)(C)C (stereo not drawn) [Example 21, [3S-(3R*,4aR*,8aR*,2′S*,3′R*)]-2-[2′-Hydroxy-3′-phenylmethyl-4′-aza-5′-oxo-5′-(2″-butyl-3′″-hydroxyphenyl)pentyl] decahydroisoquinoline-3-N-t-butylcarboxamide] | 427 ng/mL (≈ 0.739 µM) |  |  | 443 ng/mL (≈ 0.767 µM) |
| [3S-(3R*,4aR*,8aR*,2′S*,3′S*)]-2-[2′-Hydroxy-3′-phenylmethyl-4′-aza-5′-oxo-5′-[2″-methyl-3″-N-(methylsulfonyl)amino-phenyl)]pentyl] decahydroisoguinoline-3-N-t-butylcarboxamide [Example 36] |  | 1.87 µg/mL and 2.3 µg/mL | 2.43 µg/mL and 1.73 µg/mL |  |
| Cc1c(N)cccc1C(=O)NC(Cc1ccccc1)C(O)CN1CC2CCCCC2CC1C(=O)NC(C)(C)C (stereo not drawn) [Example 18, [3S-(3R*,4aR*,8aR*,2′S*,3′R*)]-2-[2′-Hydroxy-3′-phenylmethyl-4′-aza-5′-oxo-5′-(2″-methyl-3″-aminophenyl)pentyl] decahydroisoquinoline-3-N-t-butylcarboxamide] | 254 ng/mL (≈ 0.475 µM) | 0.232 µg/mL | 0.231 µg/mL | 256 ng/mL (≈ 0.479 µM) |
| CC(C)(C)NC(=O)C1CC2CCCCC2CN1CC(O)C(Cc1ccccc1)NC(=O)c1cccnc1Cl (stereo not drawn) [Example 2, [3S-(3R*,4aR*,8aR*,2′S*,3′R*)]-2-[2′-Hydroxy-3′-phenylmethyl-4′-aza-5′-oxo-5′-(2″-chloro-pyrid-3″-yl)pentyl] decahydroisoquinoline-3-N-t-butylcarboxamide] | 1580 ng/mL (≈ 2.92 µM) | 1.63 µg/mL | 1.58 µg/mL | 1380 ng/mL (≈ 2.55 µM) |
| Cc1c(O)cccc1C(=O)N[C@@H](Cc1ccccc1)[C@H](O)CN1CCN(Cc2cccnc2)C[C@H]1C(=O)NC(C)(C)C [Example 26, [2S-(2R*,2′S*,3′R*)]-1-[2′-Hydroxy-3′-phenylmethyl-4′-aza-5′-oxo-5′-(2″-methyl-3″-hydroxyphenyl)pentyl]-4-(pyrid-3′″-ylmethyl) piperazine-2-N-t-butylcarboxamide] | 49 ng/mL (≈ 0.0854 µM) |  |  | 49.7 ng/mL (≈ 0.0866 µM) |
| Cc1c(O)cccc1C(=O)NC(CSc1ccc2ccccc2c1)C(O)CN1CC2CCCCC2CC1C(=O)NC(C)(C)C (stereo not drawn) [Example 24, [3S-(3R*,4aR*,8aR*,2′S*,3′R*)]-2-[2′-Hydroxy-3′-(naphth-2-ylthiomethyl)-4′-aza-5′-oxo-5′-(2″-methyl-3″-hydroxyphenyl)pentyl] decahydroisoquinoline-3-N-t-butylcarboxamide] | 41.4 ng/mL (≈ 0.067 µM) | 0.0464 µg/mL |  | 67 ng/mL (≈ 0.108 µM) |
| CC(C)c1c(O)cccc1C(=O)NC(Cc1ccccc1)C(O)CN1CC2CCCCC2CC1C(=O)NC(C)(C)C (stereo not drawn) [Example 20, [3S-(3R*,4aR*,8aR*,2′S*,3′R*)]-2-[2′-Hydroxy-3′-phenylmethyl-4′-aza-5′-oxo-5′-(2″-iospropyl-3″-hydroxyphenyl)pentyl] decahydroisoquinoline-3-N-t-butylcarboxamide] | 144 ng/mL (≈ 0.255 µM) |  |  | 153 ng/mL (≈ 0.271 µM) |
| Cc1c(O)cccc1C(=O)NC(Cc1ccccc1)C(O)CN1CC2CCCCC2CC1C(=O)NC(C)(C)C (stereo not drawn) [Example 12, [3S-(3R*,4aR*,8aR*,2′S*,3′R*)]-2-[2′-Hydroxy-3′-phenylmethyl-4′-aza-5′-oxo-5′-(2″-methyl-3″-hydroxyphenyl)pentyl] decahydroisoquinoline-3-N-t-butylcarboxamide] |  | 0.0243 µg/mL | 0.0118 µg/mL | 16.5 ng/mL (≈ 0.0308 µM) |
| Cc1c(O)cccc1C(=O)N[C@@H](CSc1ccc2ccccc2c1)[C@H](O)CN1CCCC[C@H]1C(=O)NC(C)(C)C [Example 25, [2S-(2R*,2′S*,3′S*)]-1-[2′-Hydroxy-3′-(naphth-2-ylthiomethyl-4′-aza-5′-oxo-5′-(2″-methyl-3″-hydroxyphenyl)pentyl]piperidine-2-N-t-butylcarboxamide] | 169 ng/mL (≈ 0.3 µM) |  |  | 211 ng/mL (≈ 0.374 µM) |
| CCc1c(O)cccc1C(=O)NC(Cc1ccccc1)C(O)CN1CC2CCCCC2CC1C(=O)NC(C)(C)C (stereo not drawn) [Example 3, [3S-(3R*,4aR*,8aR*,2′S*,3′R*)]-2-[2′-Hydroxy-3′-phenylmethyl-4′-aza-5′-oxo-5′-(2″-ethyl-3″-hydroxyphenyl)pentyl] decahydroisoguinoline-3-N-t-butylcarboxamide] | 21.3 ng/mL (≈ 0.0387 µM) | 0.0215 µg/mL | 0.0113 µg/mL | 15.2 ng/mL (≈ 0.0276 µM) |
